In general, Ki refers to the equilibrium dissociation constant of an inhibitor or competing ligand from its target. Low values mean a stronger hold on the target, high ones a looser hold on the target. By EC50 is commonly meant the concentration needed to bring the measured effect to its halfway point. A high value points to a less potent agent. What is called IC50 is the concentration that gives 50% inhibition.

The values that follow come from patent US8716436B2 (priority 2010, dated 2014).

One series addresses T1, human mu opioid receptor (Homo sapiens, UniProt P35372).
T1 construct: expressed in transfected cells; host or cells: CHO cells
Nature of the series: biochemical. It is filed as binding.

Series [1] deals with human delta opioid receptor (Homo sapiens, UniProt P41143). As to the kind of experiment: biochemical. It is filed as binding.
The target in series [2] is human kappa opioid receptor (Homo sapiens, UniProt P41145). Nature of the series: biochemical. It is filed as binding.
In series [3] the target is T2, cloned human mu opioid receptor (Homo sapiens, UniProt P35372).
T2 construct: expressed in transfected cells
As to the kind of experiment: biochemical. It is filed as biochemical.

Series [4] deals with T3, cloned human delta opioid receptor (Homo sapiens, UniProt P41143).
T3 construct: expressed in transfected cells
Nature of the series: biochemical.

In series [5] the target is cloned human kappa opioid receptor (Homo sapiens, UniProt P41145). As to the kind of experiment: biochemical.
Series [6] in a line: Spared nerve injury (SNI) neuropathic pain, Randall-Selitto paw pressure. The series is classed as in vivo. Particulars: rat SNI; for Reversal time of hyperalgesia (significantly above vehicle): intrathecal cumulative doses.
Series [7] in a line: Tolerance: intrathecal cumulative dose-response in tail-flick test before and after 1 week osmotic minipump. It is filed as in vivo. The note with it: rat; for ED50 antinociception on Day 7 after minipump implantation: morphine 2 μg/hr or analog 0.056 μg/hr for about 7 days; for ED50 antinociception in opioid naïve animals: before minipump.
For series [8] the following is noted: rat.
Series [9] in a line: Rotorod test of motor coordination. The note with it: rat, cumulative i.v. doses.
Series [10] is described as follows: Morris Water Maze (spatial memory). The note with it: rat, after 4 days of training.
A short description of series [11]: Conditioned place preference (CPP). Particulars: rat, i.v., doses producing maximal antinociception.
The test system of a further series is glia. As to the kind of experiment: Glial activation (GFAP and phospho-p38 staining) after 1 week of treatment. Particulars: rat, after 1 week intrathecal treatment.
Series [12] deals with T3, cloned human delta opioid receptor. Nature of the series: 35S-GTPγS functional assay, delta antagonism against ED80 dose of SNC80. It is filed as biochemical. Particulars: for Delta Antagonist efficacy: against ED80 dose of SNC80. (Binding of GTPγS marks nucleotide exchange on a G protein.)
A further series in a line: Solubility. It is filed as physicochemical. The procedure: The solubility of the peptides of Formula I (e.g., in saline or physiologic buffer) typically is enhanced relative to the prior art tetrapeptide analogs of the endomorphins Addition of a hydrophilic amino acid and amidated C-terminus to the relatively hydrophobic tetrapeptide sequences Tyr-cyclo[D-Lys-Trp-Phe] (SEQ ID NO:10) and Tyr-cyclo[D-Lys-Phe-Phe] […] For example, Compound 1 was soluble in water, saline and 20% PEG/saline at about 43, 21 and 90 mg/mL, respectively, compared to less than about 2 mg/mL for the previously described compounds. While increases in solubility are associated with improved pharmaceutical delivery properties, higher solubility is also often associated with reduced functional activity (e.g., receptor binding) that may depend on lipophilicity.

A short description of series [13]: Tail-flick (TF) antinociception after i.v. administration. The series is classed as in vivo. The note with it: rat; for Antinociception (tail-flick): i.v., 5.6 mg/kg.

In brackets after ≈: the same amount, converted by molar mass. Read-outs that look alike come from different tables or passages of the source. Where a SMILES comes first, the peptide text is derived from it.

T1 sequence (P35372 whole entry): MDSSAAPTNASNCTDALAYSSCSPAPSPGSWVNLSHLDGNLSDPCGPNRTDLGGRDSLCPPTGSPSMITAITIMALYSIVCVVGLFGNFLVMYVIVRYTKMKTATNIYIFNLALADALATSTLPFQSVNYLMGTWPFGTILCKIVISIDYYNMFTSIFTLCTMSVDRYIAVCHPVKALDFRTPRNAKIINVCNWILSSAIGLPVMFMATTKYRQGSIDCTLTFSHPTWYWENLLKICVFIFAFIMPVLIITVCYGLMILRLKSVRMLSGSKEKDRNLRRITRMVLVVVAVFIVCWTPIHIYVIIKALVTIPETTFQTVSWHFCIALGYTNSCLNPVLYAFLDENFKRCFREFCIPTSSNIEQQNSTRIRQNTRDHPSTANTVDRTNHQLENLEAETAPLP
T2 sequence (P35372 whole entry): as above
Sequence of cloned human kappa opioid receptor (P41145 whole entry): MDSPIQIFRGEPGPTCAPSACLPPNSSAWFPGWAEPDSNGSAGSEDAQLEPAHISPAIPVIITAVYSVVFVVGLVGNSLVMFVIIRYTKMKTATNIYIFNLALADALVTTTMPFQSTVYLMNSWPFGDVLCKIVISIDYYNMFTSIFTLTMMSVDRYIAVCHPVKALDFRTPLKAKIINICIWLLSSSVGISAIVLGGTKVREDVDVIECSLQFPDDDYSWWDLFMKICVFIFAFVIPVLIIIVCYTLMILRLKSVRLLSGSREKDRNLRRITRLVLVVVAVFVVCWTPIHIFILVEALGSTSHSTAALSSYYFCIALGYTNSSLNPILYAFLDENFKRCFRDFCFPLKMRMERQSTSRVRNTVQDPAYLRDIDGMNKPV
Sequence of human kappa opioid receptor (P41145 whole entry): as above
Sequence of human delta opioid receptor (P41143 whole entry): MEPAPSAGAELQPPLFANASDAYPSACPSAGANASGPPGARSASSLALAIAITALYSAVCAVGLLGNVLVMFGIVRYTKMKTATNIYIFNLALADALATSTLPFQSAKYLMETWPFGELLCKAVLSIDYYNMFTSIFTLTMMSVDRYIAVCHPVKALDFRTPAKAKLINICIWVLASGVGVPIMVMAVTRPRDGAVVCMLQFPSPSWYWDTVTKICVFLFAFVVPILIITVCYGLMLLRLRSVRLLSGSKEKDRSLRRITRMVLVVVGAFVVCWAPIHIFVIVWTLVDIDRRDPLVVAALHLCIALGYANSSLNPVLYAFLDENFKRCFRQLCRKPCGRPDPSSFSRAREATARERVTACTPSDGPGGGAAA
T3 sequence (P41143 whole entry): as above

`N[C@@H](Cc1ccc(O)cc1)C(=O)N[C@@H]1CCCCNC(=O)[C@H](Cc2ccccc2)NC(=O)[C@H](Cc2c[nH]c3ccccc23)NC1=O` [ck1, Tyr-c[D-Lys-Trp-Phe], reference compound] (HELM PEPTIDE1{Y.[dK].W.F}$PEPTIDE1,PEPTIDE1,2:R3-4:R2$$$V2.0; bridges inferred) displayed a Ki on human mu opioid receptor of 0.32 nM. In [1], the Ki turned out to be 28 nM and the “Selectivity Delta/Mu (binding)” value amounted to 90. Further, in [2], the affinity, expressed as Ki, was 35 nM and the “Selectivity Kappa/Mu (binding)” value is 111. Also, the EC50 in [3] was determined as 0.21 nM. Further, in series [4], the midpoint of the response, the EC50, lay at 138 nM and the “Selectivity delta/mu (activation)” value is listed as 658. In addition, in series [5], the EC50 turned out to be 470 nM and the “Selectivity kappa/mu (activation)” value turned out to be 2236.
On to `CN1CC[C@]23c4c5ccc(O)c4O[C@H]2[C@@H](O)C=C[C@H]3[C@H]1C5` [Morphine, morphine, reference compound], for which, in [6] (intrathecal), the “Dose required to fully (100%) reverse hyperalgesia” value was “about 1.14 μg”. Further, the “Reversal time of hyperalgesia (significantly above vehicle)” value in [6] is given as “about 80 min”. Moreover, the “ED50 antinociception on Day 7 after minipump implantation” value in [7] was 16 ± 3.3 µg. The “ED50 antinociception in opioid naïve animals” value in series [7] (tail-flick) came to 0.253 µg. Besides, the Self-administration result in [8] is on record as “resulted in significant self-administration”. The “Motor impairment (rotorod)” value in [9] is reported as “significantly above that of vehicle controls”. Moreover, the “Impairment of spatial memory (latency to and distance from platform)” value in [10] is on record as “produced impairment of spatial memory”. The “Conditioned place preference (time spent on the drug side)” value (“Conditioned place preference” for short) in series [11] is reported as “increase in the time spent on the drug side”. For the same compound, the “Glial activation (integrated density of GFAP and pp38 staining)” value (“Glial activation” for short) in the series on glia is “produced significant glial activation”.
As for “Tyr-c[D-Lys-Trp-Phe-Glu]-Gly-NH2 [Compound 3]”, the “Delta Antagonist efficacy” value in [12] is on record as “full efficacy delta antagonism”.
For `NC(=O)[C@@H]1CC(=O)NCCCC[C@@H](NC(=O)[C@@H](N)Cc2ccc(O)cc2)C(=O)N[C@@H](Cc2c[nH]c3ccccc23)C(=O)N[C@@H](Cc2ccccc2)C(=O)N1` [Compound 5, Tyr-c[D-Lys-Trp-Phe-Asp]-NH2], the values for the Ki (on human mu opioid receptor; in [1]) were 0.43 nM and 140 nM, respectively. Further, the results for the EC50 in series [3] and in series [4] were 0.22 nM and more than 100000 nM, respectively. The compound further had an IC50 in series [12] of 557 nM. Moreover, the “Delta Antagonist efficacy” value in series [12] was determined as 100. Besides, in series [11], the “Conditioned place preference” value is reported as “no significant CPP”. Moreover, in the series with glia, the “Glial activation” value is given as “activation was not significantly different from vehicle”.
In the case of `NC(=O)[C@@H]1CCC(=O)NCCCC[C@@H](NC(=O)[C@@H](N)Cc2ccc(O)cc2)C(=O)N[C@@H](Cc2c[nH]c3ccccc23)C(=O)N[C@@H](Cc2ccccc2)C(=O)N1` [Compound 1, Tyr-c[D-Lys-Trp-Phe-Glu]-NH2], the Ki was determined as 0.49 nM at human mu opioid receptor and 132 nM in series [1]. The “Agonist EC50 mu” value in [3] is “significantly greater potency than the reference compound, DAMGO”. The “Agonist efficacy at the mu receptor” value in [3] was “full efficacy agonist”. The EC50 is 0.15 nM in [3] and more than 100000 nM in series [4]. Further, in series [12], the half-inhibitory concentration (IC50) came to 105 nM. Moreover, the entries for the “Delta Antagonist efficacy” value in [12] and in series [12] (listed as Comp. 1) were “full efficacy delta antagonism” and 93, respectively. For the same compound, the solubility in the series “Solubility” (20% PEG/saline, read-out: Solubility in 20% PEG/saline) was approximately 90 mg/mL (≈ 120 mM); in the series “Solubility” (saline, read-out: Solubility in saline) it was approximately 21 mg/mL (≈ 27.9 mM); in the series “Solubility” (water, read-out: Solubility in water), approximately 43 mg/mL (≈ 57.1 mM). The “Antinociception (TF) relative to morphine” value in [13] (cumulative doses, about 140 to 180 minutes after injection) is on record as “greater antinociception”. For the same compound, in series [13], the “Antinociception (tail-flick)” value is “antinociception similar to the 10 mg dose of morphine”. The “Time at which scores were significantly above those of morphine” value in [6] (intrathecal) lay within 155 to 215 min. In addition, the “Glial activation” value with glia was “activation was not significantly different from vehicle”.
The compound `N[C@@H](Cc1ccc(O)cc1)C(=O)N[C@@H]1CCCCNC(=O)[C@H](Cc2ccccc2)NC(=O)[C@H](Cc2ccccc2)NC1=O` [ck2, Tyr-c[D-Lys-Phe-Phe], reference compound] (HELM PEPTIDE1{Y.[dK].F.F}$PEPTIDE1,PEPTIDE1,2:R3-4:R2$$$V2.0; bridges inferred) registered a Ki on human mu opioid receptor of 0.36 nM. Also, in [1], the affinity, expressed as Ki, was 3 nM and the “Selectivity Delta/Mu (binding)” value is given as 9. In [2], affinity was put at a Ki of 12 nM and the “Selectivity Kappa/Mu (binding)” value was 33. The compound also showed an EC50 in [3] of 0.15 nM. Moreover, in series [4], it took 7 nM to reach a half-maximal effect (EC50) and the “Selectivity delta/mu (activation)” value turned out to be 44. Further, in series [5], the response was half-maximal at 206 nM (EC50) and the “Selectivity kappa/mu (activation)” value was 1374.
For the compound `NC(=O)[C@@H]1CCCCNC(=O)CC[C@@H](NC(=O)[C@@H](N)Cc2ccc(O)cc2)C(=O)N[C@@H](Cc2ccccc2)C(=O)N[C@@H](Cc2ccccc2)C(=O)N1` [Compound 2, Tyr-c[D-Glu-Phe-Phe-Lys]-NH2], the Ki was determined as 0.73 nM on human mu opioid receptor and 69 nM in series [1]. Besides, the EC50 in [3] was 0.99 nM; in [4] it was more than 100000 nM. For the same compound, the IC50 in series [12] was determined as 2750 nM. Also, the “Delta Antagonist efficacy” value in [12] worked out at 51. Moreover, the “Antinociception (TF latency) relative to morphine” value in series [13] (cumulative i.v. doses, at 135 and 155 minutes) was “significantly longer antinociception”. Besides, the “Antinociception (tail-flick)” value in series [13] was “antinociception similar to the 10 mg dose of morphine”. Also, in series [6], the “Reversal time of hyperalgesia (significantly above vehicle)” value is approximately 260 min. In series [7] (after 1 week minipump), the “Shift in ED50 (tolerance)” value is recorded as “about 8.5 fold”. In addition, the “ED50 antinociception on Day 7 after minipump implantation” value in series [7] is given as “about 0.11±0.02 μg”. Besides, the “Potency relative to morphine on a molar basis” value in [7] (tail-flick) is “about 40 fold”. Further, the “ED50 antinociception in opioid naïve animals” value in series [7] (tail-flick) was 0.01 µg. Further, the “Motor impairment (rotorod)” value in series [9] is given as “significantly less than that of morphine”. Further, in [10], the “Impairment of spatial memory (latency to and distance from platform)” value is recorded as “did not produce significant impairment”. The “Conditioned place preference” value in series [11] is recorded as “no significant CPP”. For the same compound, the “Glial activation” value with glia is on record as “activation was not significantly different from vehicle”.
